From PubChem BioAssay AID330 (DTP/NCI, 2004)
“And” between values parts separate entries of the source, which are not always exact repeats. Equal values may be shown once. Inconclusive results and toxic doses are left out. Square brackets hold non-standard residues; d marks the D form. Peptide text beside a SMILES is read from it. * marks the point of attachment. ξ: configuration not given here. Cbz = O=C(OCc1ccccc1)*; ξI = CCC(C)C(N)C(=O)O

Tested on: P388 leukemia ip, CD2F1 mice, survival T/C
Experiment: NCI In Vivo Anticancer Drug Screen. Data for tumor model P388 Leukemia (intraperitoneal) in CD2F1 (CDF1) mice
Settings: endpoint: median survival time, higher = longer survival
Method in brief: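 Mice carrying the transplanted tumor received test compound or vehicle. Survival was recorded in each group, and the value is the treated-group measurement divided by that of the vehicle-treated control group.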

[1] = dose: 50.0 mg/kg/injection, schedule: Q01DX009 (ip), vehicle: saline
[2] = dose: 100.0 mg/kg/injection, schedule: Q01DX009 (ip), vehicle: saline
[3] = dose: 200.0 mg/kg/injection, schedule: Q01DX009 (ip), vehicle: saline
[4] = dose: 50.0 mg/kg/injection, schedule: Q01DX005 (ip), vehicle: saline with Tween-80
[5] = dose: 100.0 mg/kg/injection, schedule: Q01DX005 (ip), vehicle: saline with Tween-80
[6] = dose: 200.0 mg/kg/injection, schedule: Q01DX005 (ip), vehicle: saline with Tween-80
[7] = dose: 60.0 mg/kg/injection, schedule: Q01DX005 (ip), vehicle: saline with Tween-80
[8] = dose: 120.0 mg/kg/injection, schedule: Q01DX005 (ip), vehicle: saline with Tween-80
[9] = dose: 240.0 mg/kg/injection, schedule: Q01DX005 (ip), vehicle: saline with Tween-80
[10] = dose: 30.0 mg/kg/injection, schedule: Q01DX005 (ip), vehicle: saline with Tween-80
[11] = dose: 50.0 mg/kg/injection, schedule: Q01DX009 (ip), vehicle: Klucel (hydroxypropylcellulose) (HPC)
[12] = dose: 100.0 mg/kg/injection, schedule: Q01DX009 (ip), vehicle: Klucel (hydroxypropylcellulose) (HPC)
[13] = dose: 200.0 mg/kg/injection, schedule: Q01DX009 (ip), vehicle: Klucel (hydroxypropylcellulose) (HPC)
[14] = dose: 50.0 mg/kg/injection, schedule: Q01DX009 (ip), vehicle: saline with Tween-80
[15] = dose: 100.0 mg/kg/injection, schedule: Q01DX009 (ip), vehicle: saline with Tween-80
[16] = dose: 200.0 mg/kg/injection, schedule: Q01DX009 (ip), vehicle: saline with Tween-80
[17] = dose: 50.0 mg/kg/injection, schedule: Q01DX005 (ip), vehicle: Klucel (hydroxypropylcellulose) (HPC)
[18] = dose: 100.0 mg/kg/injection, schedule: Q01DX005 (ip), vehicle: Klucel (hydroxypropylcellulose) (HPC)
[19] = dose: 200.0 mg/kg/injection, schedule: Q01DX005 (ip), vehicle: Klucel (hydroxypropylcellulose) (HPC)

SMILES: C[C@]12CC[C@@H]3c4ccc(O)cc4CC[C@H]3[C@@H]1C[C@@H](O)[C@@H]2O
- T/C [1]: 112 % of control
- T/C [2]: 100 % of control
- T/C [3]: 100 % of control
- T/C (dose: 400.0 mg/kg/injection, schedule: Q01DX009 (ip), vehicle: saline): 91 % of control

SMILES: COC1=C(OC)C(=O)C(SCCCCCCC2CCCCC2)=C(C)C1=O
- T/C (dose: 60.0 mg/kg/injection, schedule: Q01DX005 (ip), vehicle: saline + Tween-80 + alcohol): 110 % of control
- T/C (dose: 120.0 mg/kg/injection, schedule: Q01DX005 (ip), vehicle: saline + Tween-80 + alcohol): 115 % of control

SMILES: CP(=O)(NN)c1ccccc1 (stereo not given)
- T/C (dose: 12.5 mg/kg/injection, schedule: Q01DX009 (ip), vehicle: water): 89 % of control
- T/C (dose: 25.0 mg/kg/injection, schedule: Q01DX009 (ip), vehicle: water): 96 % of control
- T/C (dose: 50.0 mg/kg/injection, schedule: Q01DX009 (ip), vehicle: water): 101 % of control

SMILES: C1CC2CC3CCCCN3COC2C1 (stereo not given)
- T/C (dose: 100.0 mg/kg/injection, schedule: Q04DX003 (ip), vehicle: saline): 102 % of control
- T/C (dose: 200.0 mg/kg/injection, schedule: Q04DX003 (ip), vehicle: saline): 118 % of control

SMILES: COc1c2c(c(OC)c3c1c(=O)c1ccccc1n3C)OCO2
- T/C [4]: 104 % of control
- T/C [5]: 104 % of control
- T/C [6]: 100 % of control

SMILES: c1ccc(C23CC4CCCCC4CC2O3)cc1 (stereo not given)
- T/C (dose: 100.0 mg/kg/injection, schedule: Q04DX002 (ip), vehicle: Klucel (hydroxypropylcellulose) (HPC)): 98 % of control
- T/C (dose: 200.0 mg/kg/injection, schedule: Q04DX002 (ip), vehicle: Klucel (hydroxypropylcellulose) (HPC)): 111 % of control
- T/C (dose: 400.0 mg/kg/injection, schedule: Q04DX002 (ip), vehicle: Klucel (hydroxypropylcellulose) (HPC)): 104 % of control

SMILES: CCCCCN(CCCCC)CCCNc1c2c(nc3ccc(OC)cc13)CCCC2
- T/C (dose: 3.12 mg/kg/injection, schedule: Q01DX005 (ip), vehicle: saline): 94 % of control
- T/C (dose: 6.25 mg/kg/injection, schedule: Q01DX005 (ip), vehicle: saline): 103 % of control
- T/C (dose: 12.5 mg/kg/injection, schedule: Q01DX005 (ip), vehicle: saline): 99 % of control

SMILES: CC(C)(Br)C(=O)/C=C/c1ccc(Cl)cc1
- T/C [7]: 108 % of control
- T/C [8]: 104 % of control
- T/C [9]: 114 % of control

SMILES: O=[N+]([O-])c1cc2c(cc1S(=O)(=O)O)C1C(C3C2C2(Cl)C(Cl)=C(Cl)C3(Cl)C2(Cl)Cl)C2(Cl)C(Cl)=C(Cl)C1(Cl)C2(Cl)Cl (stereo not given)
- T/C [1]: 101 % of control
- T/C [2]: 98 % of control

SMILES: O=C(O)c1cccnc1C(=O)Nc1cccc2ccccc12
- T/C (dose: 15.0 mg/kg/injection, schedule: Q01DX005 (ip), vehicle: saline with Tween-80): 102 % of control
- T/C [10]: 98 % of control
- T/C [7]: 99 % of control (2×) and 93 % of control
- T/C [9]: 86 % of control and 92 % of control

SMILES: Cc1cc(C)c(-c2c(Br)c(OC(=O)CO[C@@H]3C[C@H](C)CC[C@H]3C(C)C)c(-c3c(C)cc(C)c(Br)c3C)c(Br)c2OC(=O)CO[C@@H]2C[C@H](C)CC[C@H]2C(C)C)c(C)c1Br
- T/C [4]: 107 % of control
- T/C [5]: 100 % of control
- T/C [6]: 88 % of control

SMILES: Cc1ccc(C2C(C#N)C(=O)NC(=O)C2C#N)cc1 (stereo not given)
- T/C [11]: 100 % of control
- T/C [12]: 108 % of control
- T/C [13]: 99 % of control

SMILES: CC(=O)OC1COC2OC1C(OC(C)=O)C2OC(C)=O (stereo not given)
- T/C [4]: 101 % of control
- T/C [5]: 104 % of control
- T/C [6]: 101 % of control

SMILES: O=C1c2ccccc2NC(c2cc(Cl)cc(Cl)c2O)N1CCc1ccccn1 (stereo not given)
- T/C [1]: 92 % of control
- T/C [2]: 94 % of control

SMILES: O=c1c(N=Nc2ccccc2)c[nH]n1-c1ccccc1
- T/C (dose: 62.5 mg/kg/injection, schedule: Q01DX009 (ip), vehicle: saline with Tween-80): 97 % of control
- T/C (dose: 125.0 mg/kg/injection, schedule: Q01DX009 (ip), vehicle: saline with Tween-80): 97 % of control
- T/C (dose: 250.0 mg/kg/injection, schedule: Q01DX009 (ip), vehicle: saline with Tween-80): 94 % of control

SMILES: NC(=S)N/N=C\c1nccc2ccc(N)cc12
- T/C [14]: 94 % of control

SMILES: CCc1cc(CC)c(-c2ccco2)c(COC(=O)NC)c1
- T/C [14]: 101 % of control
- T/C [15]: 101 % of control
- T/C [16]: 106 % of control

SMILES: O=C(O)Cc1csc(=S)n1Cc1ccccc1
- T/C [4]: 100 % of control
- T/C [5]: 102 % of control
- T/C [6]: 90 % of control

SMILES: CCOC(=O)C1=C(C(=O)c2ccc(OC)cc2)C(c2cccc([N+](=O)[O-])c2)C(C(=O)c2ccc(OC)cc2)=C(C(=O)OCC)N1
- T/C [10]: 93 % of control
- T/C [7]: 90 % of control and 96 % of control
- T/C [8]: 94 % of control
- T/C [9]: 90 % of control

SMILES: O=C(c1ccc([N+](=O)[O-])cc1)N1CCCSC1=S
- T/C [7]: 107 % of control
- T/C [8]: 98 % of control
- T/C [9]: 101 % of control

SMILES: N#[N+]c1ccc2c(S(=O)(=O)Oc3ccc(C(=O)c4ccccc4)c(OS(=O)(=O)c4cccc5c([O-])c([N+]#N)ccc45)c3)cccc2c1[O-]
- T/C (dose: 12.5 mg/kg/injection, schedule: Q01DX005 (ip), vehicle: saline with Tween-80): 110 % of control
- T/C (dose: 25.0 mg/kg/injection, schedule: Q01DX005 (ip), vehicle: saline with Tween-80): 107 % of control
- T/C [4]: 105 % of control and 107 % of control

SMILES: Nc1ccc2c3c(cccc13)C(=O)N(CCCBr)C2=O
- T/C [7]: 103 % of control
- T/C [8]: 113 % of control
- T/C [9]: 107 % of control

SMILES: CCCN(CCC)C(=O)C(c1ccccc1)C1(O)CCCCC1 (stereo not given)
- T/C [17]: 100 % of control
- T/C [18]: 100 % of control
- T/C [19]: 97 % of control

SMILES: O=C(CNC(=O)c1ccccc1)OC(C(=O)O)c1ccc(F)cc1 (stereo not given)
- T/C [14]: 100 % of control
- T/C [15]: 102 % of control
- T/C [16]: 96 % of control

SMILES: Cc1cccc(Nc2c3c(nc4ccccc24)CCCCC3)c1
- T/C [7]: 98 % of control
- T/C [8]: 90 % of control
- T/C [9]: 91 % of control

SMILES: O=C1NCC(c2ccccc2)N1 (stereo not given)
- T/C [14]: 119 % of control
- T/C [15]: 100 % of control
- T/C [16]: 106 % of control

SMILES: CCC(C)C(NC(=O)CNC(=O)CNC(=O)OCc1ccccc1)C(=O)O (stereo not drawn) (Cbz-Gly-Gly-[ξI]-OH)
- T/C [4]: 103 % of control
- T/C [5]: 100 % of control
- T/C [6]: 102 % of control

SMILES: NC(=O)NN1CC(=O)N(c2ccccc2)CC1=O
- T/C [14]: 97 % of control
- T/C [15]: 100 % of control
- T/C [16]: 95 % of control

SMILES: CSc1ncn(C)c1C(N)=O
- T/C [17]: 97 % of control
- T/C [18]: 99 % of control
- T/C [19]: 99 % of control

SMILES: CN(C)c1ccc(/C=N/NC(=O)CNC(=O)n2ccnc2)cc1
- T/C [4]: 99 % of control
- T/C [5]: 94 % of control
- T/C [6]: 94 % of control

SMILES: COc1cc(OC)c(NC(=S)Nc2sc3c(c2C#N)CCCC3)cc1Cl
- T/C (dose: 50.0 mg/kg/injection, schedule: Q01DX009 (ip), vehicle: gum acacia): 110 % of control
- T/C (dose: 100.0 mg/kg/injection, schedule: Q01DX009 (ip), vehicle: gum acacia): 103 % of control
- T/C (dose: 200.0 mg/kg/injection, schedule: Q01DX009 (ip), vehicle: gum acacia): 102 % of control

SMILES: CC1(C)SSCC1=O
- T/C (dose: 50.0 mg/kg/injection, schedule: Q01DX005 (ip), vehicle: saline): 104 % of control
- T/C (dose: 100.0 mg/kg/injection, schedule: Q01DX005 (ip), vehicle: saline): 109 % of control
- T/C (dose: 200.0 mg/kg/injection, schedule: Q01DX005 (ip), vehicle: saline): 108 % of control

SMILES: CC(C)(C)OC(=O)NC(CCCNC(=O)OCc1ccccc1)C(=O)O (stereo not given)
- T/C [17]: 100 % of control
- T/C [18]: 100 % of control
- T/C [19]: 99 % of control

SMILES: C1CN2CCN1CC2
- T/C [1]: 99 % of control and 105 % of control
- T/C [2]: 94 % of control and 108 % of control
- T/C [3]: 103 % of control and 99 % of control

SMILES: CCCCCC(CC(=O)O)C(N)C(=O)O (stereo not given)
- T/C [11]: 104 % of control
- T/C [12]: 103 % of control
- T/C [13]: 99 % of control

SMILES: [O-]/[N+](=C\c1ccc(Cl)cc1Cl)c1ccccc1
- T/C [11]: 96 % of control
- T/C [12]: 100 % of control
- T/C [13]: 100 % of control
